Consider one molecule from paper PMC3344887 (PLoS ONE, 2012).

For data set [1] the following is noted: cited from earlier work.
The target in data set [2] is DAT (Homo sapiens, UniProt Q01959). Kind of data set: cell-based.
Data set [3] relates to healthy subjects. Kind of data set: Adjective Mood Rating Scale (AMRS), clinical study. The class given is in vivo, humans. The settings on record: peak change from baseline, mean±SEM, 16 subjects. As to the method:
(§1) The washout periods between the sessions were at least 10 days long.
(§2) Identical placebo (lactose) capsules were prepared. […] Drugs were administered without food.
(§3) The psychometric measures included Visual Analog Scales (VAS), [10], the Adjective Mood Rating Scale (AMRS), and 5-Dimensions of Altered States of Consciousness (5D-ASC), [23]. […] The VASs were presented as 100 mm horizontal lines marked “not at all" on the left and “extremely" on the right. The VASs for “closeness to others," “open," and “talkative" were bidirectional (±50 mm). The VASs were administered 4 h before and 0, 0.33, 1, 1.5, 2, 2.5, 3, 3.5, 4, and 5 h after MDMA or placebo administration. […] The AMRS contains subscales for activity, extroversion and introversion, well-being, emotional excitation, anxiety-depression, and dreaminess. The 5D-ASC rating scale measures alterations in mood, perception, experience of self in relation to the environment, and thought disorder. The 5D-ASC rating scale comprises five subscales or dimensions and 11 lower-order scales. The 5D-ASC dimension “oceanic boundlessness" (OB, 27 items) measures derealization and depersonalization associated with positive emotional states, ranging from heightened mood to euphoric exaltation. […] The global ASC score was determined by adding the OB, AED, and VR scores. The 5D-ASC scale was administered 4 h after MDMA or placebo administration.
(§4) Clinical data values were transformed to differences from baseline. Peak effects (Emax) were determined for repeated measures. Emax values were compared using General Linear Models repeated-measures analysis of variance, with drug as within-subject factor, using Statistica 6.0 software (StatSoft, Tulsa, OK). Tukey post hoc comparisons were performed based on significant main effects of treatment. Additional analyses of variance were performed, with period as factor to exclude period effects. Correlation analyses were performed using Pearson’s correlations. The criterion for significance was p<0.05. Mean arterial pressure (MAP) was calculated from diastolic blood pressure and systolic blood pressure using the following formula: MAP = DBP+(SBP - DBP)/3.

Data set [4] concerns healthy subjects. Kind of data set: Physiologic measures (blood pressure, heart rate, body temperature), clinical study. Format: in vivo, humans. The settings on record: peak change from baseline, mean±SEM, 16 subjects. As to the method:
as §1, §2
(§5) Physiologic measures were assessed repeatedly 4, 3, 2, and 1 h before and 0, 0.33, 0.66, 1, 1.5, 2, 2.5, 3, 4, 5, and 6 h after MDMA or placebo administration. Heart rate, systolic blood pressure, and diastolic blood pressure were measured using an OMRON M7 blood pressure monitor (OMRON Healthcare Europe, Hoofddorp, The Netherlands). Measures were taken twice per time point with an interval of 1 min, and the average was used for the analysis. Core (tympanic) temperature was assessed using a GENIUS 2 ear thermometer (Tyco Healthcare Group, Watertown, NY). […] Adverse effects were assessed using the List of Complaints (LC), which consists of 66 items that yield a total adverse effects score and reliably measure physical and general discomfort.
as §4

Data set [5] relates to healthy subjects. Kind of data set: 5-Dimensions of Altered States of Consciousness (5D-ASC), clinical study. The class given is in vivo, humans. The settings on record: placebo-placebo vs placebo-MDMA. As to the method:
as §1, §2, §3

Data set [6] concerns the target NET (Homo sapiens, UniProt P23975). Kind of data set: Radioligand binding, [3H]-nisoxetine, HEK 293 membranes. More on the design: expressed in transfected cells; host or cells: HEK 293 cells (Invitrogen), stably transfected.
Data set [7] concerns healthy subjects. Kind of data set: Circulating plasma catecholamines, clinical study. The settings on record: peak change from baseline, mean±SEM, 16 subjects. Format: in vivo, humans. As to the method: as §1, §2
Plasma concentrations of copeptin were also determined in this study as reported elsewhere. […] No hydrolysis was performed. Thus, the values for HMMA represent the drug concentrations of the non-conjugated metabolite. All blood samples were collected on ice and centrifuged within 10 min at 4°C. The plasma was then stored at –20°C until the analysis.

Data set [8] relates to healthy subjects. Kind of data set: Adverse effects, List of Complaints, clinical study. As to the method:
as §1, §2, §5

Sequence of NET (P23975 whole entry): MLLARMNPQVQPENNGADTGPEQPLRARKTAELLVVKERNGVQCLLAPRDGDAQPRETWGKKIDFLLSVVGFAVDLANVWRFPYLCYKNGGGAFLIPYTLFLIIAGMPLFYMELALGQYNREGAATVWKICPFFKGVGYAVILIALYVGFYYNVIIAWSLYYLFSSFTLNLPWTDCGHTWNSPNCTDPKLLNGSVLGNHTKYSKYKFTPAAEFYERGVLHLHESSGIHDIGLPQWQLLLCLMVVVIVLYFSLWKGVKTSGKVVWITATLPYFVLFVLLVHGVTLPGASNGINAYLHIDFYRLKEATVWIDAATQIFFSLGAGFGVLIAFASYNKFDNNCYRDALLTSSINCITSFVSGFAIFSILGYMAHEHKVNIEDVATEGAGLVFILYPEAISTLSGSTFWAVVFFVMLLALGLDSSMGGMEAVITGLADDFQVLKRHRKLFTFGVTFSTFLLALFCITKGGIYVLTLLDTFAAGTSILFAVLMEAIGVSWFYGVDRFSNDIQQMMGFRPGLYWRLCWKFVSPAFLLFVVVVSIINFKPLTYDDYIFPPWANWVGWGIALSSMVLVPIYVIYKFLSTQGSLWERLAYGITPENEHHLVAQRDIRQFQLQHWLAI
Sequence of DAT (Q01959 whole entry): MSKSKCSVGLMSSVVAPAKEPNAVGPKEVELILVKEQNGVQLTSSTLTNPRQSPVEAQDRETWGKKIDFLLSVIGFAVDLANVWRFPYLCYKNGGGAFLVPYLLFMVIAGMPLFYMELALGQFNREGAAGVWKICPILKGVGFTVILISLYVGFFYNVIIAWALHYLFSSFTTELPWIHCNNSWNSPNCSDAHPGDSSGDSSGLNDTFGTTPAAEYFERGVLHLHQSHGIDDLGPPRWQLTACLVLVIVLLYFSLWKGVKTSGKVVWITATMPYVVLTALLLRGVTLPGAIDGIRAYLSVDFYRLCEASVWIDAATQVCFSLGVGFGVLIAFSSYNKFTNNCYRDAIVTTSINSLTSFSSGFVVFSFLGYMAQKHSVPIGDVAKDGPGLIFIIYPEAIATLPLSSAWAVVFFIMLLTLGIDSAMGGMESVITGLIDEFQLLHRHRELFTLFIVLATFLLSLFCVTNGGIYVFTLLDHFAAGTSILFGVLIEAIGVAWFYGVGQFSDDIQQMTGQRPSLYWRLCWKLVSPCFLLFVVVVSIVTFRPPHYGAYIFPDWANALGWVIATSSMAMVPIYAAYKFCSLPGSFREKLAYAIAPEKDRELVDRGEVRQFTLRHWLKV

Usually Tmax stands for the time from dosing to the highest level. Usually Ki stands for a dissociation constant, usually derived from enzyme kinetics or from competition with a known ligand. Low values mean higher affinity, high ones lower affinity. Take `CNC(C)Cc1ccc2c(c1)OCO2` (stereo not shown) [MDMA, 3,4-methylenedioxymethamphetamine]: in data set [1] (100 -125 mg dose), the T1/2 was 8 to 9 h. Also, the “Increase of MDMA plasma levels” value in data set [1] (pretreatment with paroxetine) is reported as 30%. Besides, the Tmax in data set [1] (single dose) is 2 to 2.4 h. Moreover, affinity in data set [2] was put at a Ki of 16.7 µM. For the same molecule, in data set [3], the “AMRS Activity, Emin” value was −4.69±1.04; the “AMRS Dreaminess, Emax” value was 2.94±0.66; the “AMRS Emotional excitation, Emax” value was determined as 4.94±0.97; the “AMRS Extroversion, Emax” value is recorded as 3.50±0.61. In data set [3], the “AMRS Introversion, Emax” value is reported as 2.62±0.65 and the “AMRS Well-being, Emax” value turned out to be 7.06±1.01. Further, in data set [4] (diastolic blood pressure), the “DPB, Emax” value amounted to 22.13±2.08 mm Hg. Further, the “MAP, Emax” value in data set [4] (mean arterial pressure) amounted to 21.76±2.73 mm Hg. Also, the “Heart rate, Emax” value in data set [4] was 26.06±2.77 beats/min. In data set [4] (systolic blood pressure), the “SBP, Emax” value is listed as 29.94±3.41 mm Hg. Further, the “Body temperature, Emax” value in data set [4] (tympanic) was 0.54±0.07 °C. Also, the “Effect on ASC sum score, OB, AED and VR dimensions” value in data set [5] is reported as “significantly increased”. This molecule showed a Ki in data set [6] of 22.4 ± 14.6 µM. Besides, in data set [7], the “Circulating Epinephrine, Emax” value was found to be 0.50 ± 0.12 nM and the “Circulating Norepinephrine, Emax” value is 0.44 ± 0.12 nM. For the same molecule, the “List of Complaints (total score), Acute adverse effects” value in data set [8] (at 3 h, change from baseline, mean±SEM, 16 subjects) amounted to 5.56±1.72. Also, in data set [8] (at 24 h, change from baseline, mean±SEM, 16 subjects), the “List of Complaints (total score), Sub-acute adverse effects” value was 3.88±1.09. Besides, the Adverse effects produced entry in data set [8] (clinical study) was “sweating, difficulty concentrating, thirst, and lack of appetite”.
